Laboratory results published in patent publication US9511070B2, “Heterocyclyl carboxamides for treating viral diseases” (NOVADRUG, LLC, priority 2012, dated 2016).
“Also recorded” adds a separate entry of the source.

Tests used:
JFH-1 HCV [1] = conditions: for HCV Antiviral Activity: viral titer at 5 μM or 15 μM compared to untreated control; for intracellular HCV RNA levels (FIGS. 1A, 1B, 1C): relative to mock-treated HCV infected control, doses in μM
Excerpt: In vitro assay for anti-HCV efficacy. HCV studies typically involve infected patients and chimpanzees. However, recently, a robust HCV infection system was developed with cells derived from the Huh-7 human hepatoma cell line. It is based on the unique JFH-1 HCV consensus cDNA derived from an HCV patient. Using reverse genetics, the infectious virus can be rescued from this HCV clone. The recovered viable JFH virus can be passaged serially in Huh-7 cells. For this reason, this system is amenable for evaluating the activity of test compound for their anti-HCV efficacy.
(§1) Briefly, 6×10^3 Huh7-1 cells are incubated overnight in each well of collagen-coated BioCoat 96-well plates (BD Biosciences, Bedford, Mass.) in 0.2 ml 10% medium composed of Dulbecco's modified Eagle's medium supplemented with 10% fetal bovine serum. Subsequently, at 2 day intervals, the cultures are replenished with fresh 0.2 ml 10% medium. After the cultures become confluent, they continue to be replenished at 2 day intervals with fresh 0.2 ml 10% medium that also includes 1% dimethyl sulfoxide (DMSO). After 20 days of these replenishments, the Huh7-1 cultures are incubated with fresh 1% medium (same as 10% medium except that the serum level is 1%) containing HCV at a multiplicity of infection (MOI) of 0.05 focus forming units (ffu)/cell. The HCV (JFH-lwt Huh7) stock titer is 1.5×10^5 ffu/mL. The next day (day 1 post-infection) and 2 days later (day 3 post-infection) the media are replenished with fresh 1% medium containing the test compounds dissolved in DMSO. On the 5th day of treatment with the compounds, cell lysates are collected for RNA isolation and Real Time-quantitative Reverse Transcription Polymerase Chain Reaction (RT-qPCR) and culture media are collected for cytotoxicity analysis.
(§2) Total RNA is isolated from cells by the guanidine thiocyanate method using standard protocols. One μg RNA is used for cDNA synthesis using TaqMan reverse transcription reagents (Applied Biosystems, Foster City, Calif.) followed by real-time PCR using an Applied Biosystems 7300 real-time thermocycler. Thermal cycling consists of initial denaturation of 10 min at 95° C. followed by 40 cycles of denaturation (15 s at 95° C.) and annealing/extension (1 m at 60° C.). HCV and human glyceraldehyde-3-phosphate dehydrogenase (GAPDH) RNA levels are determined relative to a standard curve of serial dilutions of plasmid containing JFH-1 HCV or GAPDH cDNA. The PCR primers used to detect GAPDH and HCV are: GAPDH (NMX002046) 5′-[…]-3′(SEQ ID NO: 16) (sense) and 5′-[…]-3′(SEQ ID NO: 17) (anti-sense) JFH-1 HCV (AB047639) 5′-[…]-3′(SEQ ID NO: 18) (sense) and 5′-[…]-3′(SEQ ID NO: 19) (anti-sense).

JFH-1 HCV [2] = experiment: Co-therapy treatment for HCV infection (intracellular HCV RNA, with and without IFN-β-1b); type: cell-based, Hepatitis C virus; conditions: for Fold Inhibition: vs untreated control
Experimental: as §1, §2
Co-therapy Treatment for HCV Infection. […] The compounds described herein are tested to determine whether they increase the efficacy of either RBV, IFN-β-1b, or a combination thereof. Using the protocol described for determining chemical-evoked reduction in intracellular HCV RNA, the cells are treated with and without 10 U/mL IFN-β-1b in combination with 2.5 or 10 μM of the compounds described herein and for comparison with 10 μM MA and 80 μM RBV.

[3] = system: Bovine Viral Diarrhea Virus strain NADL; experiment: Anti-BVDV efficacy, cytopathic (CPE) assay in Bovine Turbinate cells (MTT); type: cell-based; conditions: cell survival at 10 μM compared to untreated control; TABLE 4(a)
Experimental: Assay for Anti-BVDV efficacy. Bovine Turbinate (BT) cells maintained as monolayers in disposable cell culture labware are used for the antiviral efficacy test. Prior to testing, host cell cultures are seeded onto the 96-well cell culture plates and used approximately 48 hours after seeding. […] The growth medium (GM) and maintenance medium (MM) include Dulbecco's Modified Eagle Media (DMEM) with L-glutamine (ATCC #30-2002), 10% Horse serum and penicillin/streptomycin (10,000 units of penicillin and 10,000 μg of streptomycin per mL, Life Technologies #15140-122 or similar) for a final concentration of 100 units penicillin and 100 μg streptomycin in the medium. Bovine Viral Diarrhea Virus strain NADL from BSLI high-titer virus stock is used. Prior to use, aliquots of the stock virus are removed and thawed from a −70° C. freezer. The BVDV is diluted in a maintenance medium (MM) to obtain 0.1 Multiplicity of Infection (MOI). Cytopathic (CPE) assay. CPE refers to degenerative changes in BT tissue culture induced by BVDV as a consequence of its multiplication. BT cell cultures are washed with PBS, and 100 μL aliquots of MM are added to the cells and incubated in a CO2 incubator for 2 hours. After incubation, the MM is removed; the cells washed again with PBS and overlaid with 100 μL of the different concentrations of test compounds. The plates are incubated in a CO2 incubator for 48 to 72 hours. […] This assay is a colorimetric assay that measures the activity of enzymes that reduce MTT to the purple color formazan dye. CPE is confirmed using an Inverted Compound Microscope.

Row | SMILES | HCV Antiviral Activity (JFH-1 HCV [1]) | further results
1 | O=C(Nc1cccc(-c2cccc(F)c2)c1)C1CCN(Cc2cccc3cccnc23)CC1 [Example 16] | ++ (“++” corresponds to ≦60% viral titer at 5 μM) | Average HCV copies/μg RNA (JFH-1 HCV [2]; 2.5 μM +IFN-β-1b (10 U/mL)): 1.1 × 10^5 copies/μg RNA; Fold Inhibition (JFH-1 HCV [2]; 2.5 μM +IFN-β-1b (10 U/mL)): 85 fold; Average HCV copies/μg RNA (JFH-1 HCV [2]; 2.5 μM, alone): 3.3 × 10^6 copies/μg RNA; Fold Inhibition (JFH-1 HCV [2]; 2.5 μM, alone): 3 fold; Average HCV copies/μg RNA (JFH-1 HCV [2]; 10 μM +IFN-β-1b (10 U/mL)): 9.6 × 10^4 copies/μg RNA; Fold Inhibition (JFH-1 HCV [2]; 10 μM +IFN-β-1b (10 U/mL)): 97 fold; Average HCV copies/μg RNA (JFH-1 HCV [2]; 10 μM, alone): 2.0 × 10^6 copies/μg RNA; Fold Inhibition (JFH-1 HCV [2]; 10 μM, alone): 5 fold; reduction of intracellular HCV RNA levels by the combination with IFN-β-1b (in words) (JFH-1 HCV [2]; combination with IFN-β-1b): more effective than that achieved with RBV; also recorded: reduces intracellular HCV RNA levels more effectively than either agent alone
2 | Cc1c[nH]c2ncnc(N3CCC(C(=O)Nc4cccc(-c5cc6ccccc6[nH]5)c4)CC3)c12 [Example 100] |  | BVDV Antiviral Activity [3]: +++ (“+++” corresponds to ≧75 cell survival at 10 μM)
3 | Cc1c[nH]c2ncnc(N3CCC(C(=O)Nc4cccc(Br)c4)CC3)c12 [Example 103] |  | BVDV Antiviral Activity [3]: + (“+” corresponds to ≦50 cell survival at 10 μM, and improved survival over untreated control)
4 | Cc1c[nH]c2ncnc(N3CCC(C(=O)Nc4ccc(Oc5ccccc5F)cc4)CC3)c12 [Example 101] |  | BVDV Antiviral Activity [3]: ++ (“++” corresponds to >50 but <75 cell survival at 10 μM)
5 | CC(C)n1cc(CN2CCC(C(=O)Nc3cccc(-c4cc5ccccc5[nH]4)c3)CC2)cn1 [Example 38] | + (“+” corresponds to ≦60% viral titer at 15 μM) | 
6 | O=C(Nc1cccc(-c2ccco2)c1)C1CCN(C(=O)CCc2ccco2)CC1 [Example 53] | − (“−” corresponds to >60% viral titer at 15 μM (highest concentration tested)) | 
7 | O=C(Nc1cccc(-c2cccc(Cl)c2)c1)C1CCN(Cc2ccccn2)CC1 [Example 98] | + (“+” corresponds to ≦60% viral titer at 15 μM) | 
8 | COc1cccc(O)c1CN1CCC(C(=O)Nc2cccc(-c3cccc(F)c3)c2)CC1 [Example 30] | + (“+” corresponds to ≦60% viral titer at 15 μM) | 
9 | O=C(Nc1cccc(-c2cccc(F)c2)c1)C1CCN(Cc2cccc3c2OCO3)CC1 [Example 56] | − (“−” corresponds to >60% viral titer at 15 μM (highest concentration tested)) | 
10 | COc1cccc(-c2ccccc2NC(=O)C2CCN(Cc3ccc(OC)c(C)c3)CC2)c1 [Example 32] | + (“+” corresponds to ≦60% viral titer at 15 μM) | 
11 | COc1cccc(CN2CCC(C(=O)Nc3ccc(Oc4ccccc4F)cc3)CC2)c1O [Example 61] | ++ (“++” corresponds to ≦60% viral titer at 5 μM) | 
12 | COc1cccc(CN2CCC(C(=O)Nc3cccc(-c4cccc(Cl)c4)c3)CC2)c1O [Example 63] | ++ (“++” corresponds to ≦60% viral titer at 5 μM) | 
13 | Cc1nn(C(C)C)c(C)c1CN1CCC(C(=O)Nc2cccc(-c3cccc(F)c3)c2)CC1 [Example 76] | ++ (“++” corresponds to ≦60% viral titer at 5 μM) | 
14 | CCCn1ncc(CN2CCC(C(=O)Nc3ccc(Oc4ccccc4F)cc3)CC2)c1C [Example 73] | + (“+” corresponds to ≦60% viral titer at 15 μM) | 
15 | COc1cccc(-c2ccccc2NC(=O)C2CCN(Cc3cccc(OC)c3O)CC2)c1 [Example 62] | ++ (“++” corresponds to ≦60% viral titer at 5 μM) | 
16 | COc1cccc(CN2CCC(C(=O)Nc3cccc(-c4cccc(F)c4)c3)CC2)c1OC [Example 84] | + (“+” corresponds to ≦60% viral titer at 15 μM) | 
17 | CCn1cc(CN2CCC(C(=O)Nc3ccc(Oc4ccccc4F)cc3)CC2)cn1 [Example 97] | ++ (“++” corresponds to ≦60% viral titer at 5 μM) | 
18 | O=C(Nc1ccc(Oc2ccccc2)nc1)C1CCN(Cc2ccccc2)CC1 [Example 77] | ++ (“++” corresponds to ≦60% viral titer at 5 μM) | 
19 | COc1cc(CN2CCC(C(=O)Nc3ccc(-c4cccc(C)c4)cc3)CC2)ccc1O [Example 17] | + (“+” corresponds to ≦60% viral titer at 15 μM) | 
20 | CCN1CCC(N2CCC(C(=O)Nc3ccc(Oc4ccccc4F)cc3)CC2)CC1 [Example 75] | +++ (“+++” corresponds to ≦30% viral titer at 5 μM) | 
21 | COc1cccc(-c2ccccc2NC(=O)C2CCN(Cc3cc(C)ccc3C)CC2)c1 [Example 88] | + (“+” corresponds to ≦60% viral titer at 15 μM) | 
22 | O=C(Nc1ccc(Oc2ccccc2F)cc1)C1CCN(Cc2cccc3c2OCO3)CC1 [Example 28] | ++ (“++” corresponds to ≦60% viral titer at 5 μM) | intracellular HCV RNA levels (FIGS. 1A, 1B, 1C) (JFH-1 HCV [1]): dose dependent decrease in HCV RNA levels
23 | COc1cccc(-c2ccccc2NC(=O)C2CCN(Cc3ccccc3OC)CC2)c1 [Example 25] | ++ (“++” corresponds to ≦60% viral titer at 5 μM) | 
24 | COc1ccccc1/C=C/CN1CCC(C(=O)Nc2ccc(-n3nc(C)cc3C)cc2)CC1 [Example 66] | + (“+” corresponds to ≦60% viral titer at 15 μM) | 
25 | O=C(Nc1cccc(-c2cccc(Cl)c2)c1)C1CCN(Cc2ccc(O)cc2)CC1 [Example 31] | + (“+” corresponds to ≦60% viral titer at 15 μM) | 
26 | COc1cccc(-c2ccccc2NC(=O)C2CCN(Cc3cccc4cccnc34)CC2)c1 [Example 22] | +++ (“+++” corresponds to ≦30% viral titer at 5 μM) | intracellular HCV RNA levels (FIGS. 1A, 1B, 1C) (JFH-1 HCV [1]): dose dependent decrease in HCV RNA levels
27 | O=C(Nc1cccc(-c2cccc(F)c2)c1)C1CCN(Cc2cccc(O)c2)CC1 [Example 29] | + (“+” corresponds to ≦60% viral titer at 15 μM) | 
28 | NC(=O)c1ncn([C@@H]2O[C@H](CO)[C@@H](O)[C@H]2O)n1 [RBV, ribavirin, reference compound] |  | Average HCV copies/μg RNA (JFH-1 HCV [2]; 80 μM +IFN-β-1b (10 U/mL)): 1.8 × 10^5 copies/μg RNA; Fold Inhibition (JFH-1 HCV [2]; 80 μM +IFN-β-1b (10 U/mL)): 52 fold; Average HCV copies/μg RNA (JFH-1 HCV [2]; 80 μM, alone): 5.0 × 10^6 copies/μg RNA; Fold Inhibition (JFH-1 HCV [2]; 80 μM, alone): 2 fold
29 | CCc1nc(CN2CCC(C(=O)Nc3cccc(-c4cccc(F)c4)c3)CC2)c(C)[nH]1 [Example 68] | + (“+” corresponds to ≦60% viral titer at 15 μM) | 
